Assay results as given in patent US10501482B2, “Compounds for treating spinal muscular atrophy” (Hoffmann-La Roche Inc., priority 2013, dated 2019).
Where a name gives a salt, the structure may show the parent alone.

Tests used:
[1] = tested on: full length SMN2 minigene mRNA (FL SMN2mini) in HEK293H cells stably transfected with the SMN2-A minigene construct; assay: SMN2 minigene mRNA splicing RT-qPCR assay in cultured cells; type: cell-based; details: Homo sapiens, HEK293-H, 24 hours, 7-point concentration curve, concentration giving 1.5-fold FL SMN2mini mRNA vs vehicle, read-out: EC1.5x minigene (EC1.5x concentration for production of full length SMN2 minigene mRNA)
Procedure: The reverse transcription-quantitative PCR-based (RT-qPCR) assay is used to quantify the level of the full length SMN2 minigene (referred to herein by the term “FL SMN2mini”) mRNA containing SMN2 exon 7 in a HEK293H cell line stably transfected with said minigene and treated with a test compound.
The SMN2-A minigene construct was prepared as described in International Patent Application WO2009/151546A1 page 145 paragraph [00400] to page 147 paragraph [00412](incl. FIG. 1 and FIG. 3 therein).
HEK293H cells stably transfected with the SMN2-A minigene construct (10,000 cells/well) are seeded in 200 μL of cell culture medium (DMEM plus 10% FBS, with 200 μg/mL hygromycin) in 96-well flat-bottom plates and the plate is immediately swirled to ensure proper dispersal of cells and the formation of an even monolayer of cells. Cells are allowed to attach for 6 hours. […] A solution of test compound (1 μL, 200× in DMSO) is added to each cell-containing well and the plate is incubated for 24 hours in a cell culture incubator (37° C., 5% CO2, 100% relative humidity). 2 replicates are prepared for each test compound concentration. The cells are then lysed in the Cells-To-Ct lysis buffer and the lysate is stored at −80° C.
Full length SMN2-A minigene and GAPDH mRNA are quantified using the primers and probes referenced in Table 1. Primer SMN Forward A (SEQ ID NO.1) hybridizes to a nucleotide sequence in exon 7 (nucleotide 22 to nucleotide 40), primer SMN Reverse A (SEQ ID NO.2) hybridizes to a nucleotide sequence in the coding sequence of Firefly luciferase, SMN Probe A (SEQ ID NO.3) hybridizes to a nucleotide sequence in exon 7 (nucleotide 50 to nucleotide 54) and exon 8 (nucleotide 1 to nucleotide 21). The combination of these three oligonucleotides detects only SMN1 or SMN2 minigenes (RT-qPCR) and will not detect endogenous SMN1 or SMN2 genes.
The SMN forward and reverse primers are used at final concentrations of 0.4 μM. The SMN probe is used at a final concentration of 0.15 μM. The GAPDH primers are used at final concentrations of 0.2 μM and the probe at 0.15 μM.
The SMN2-minigene GAPDH mix (15 μL total volume) is prepared by combining 7.5 μL of 2×RT-PCR buffer, 0.4 μL of 25×RT-PCR enzyme mix, 0.75 μL of 20×GAPDH primer-probe mix, 4.0075 μL of water, 2 μL of 10-fold diluted cell lysate, 0.06 μL of 100 μM SMN forward primer, 0.06 μL of 100 μM SMN reverse primer, and 0.225 μL of 100 μM SMN probe.
PCR is carried out at the following temperatures for the indicated time: Step 1: 48° C. (15 min); Step 2: 95° C. (10 min); Step 3: 95° C. (15 sec); Step 4: 60° C. (1 min); then repeat Steps 3 and 4 for a total of 40 cycles.
Each reaction mixture contains both SMN2-A minigene and GAPDH primers/probe sets (multiplex design), allowing simultaneous measurement of the levels of two transcripts.
The increase in the abundance of the FL SMN2mini mRNA relative to that in cells treated with vehicle control is determined from real-time PCR data using a modified ΔΔCt method (as described in Livak and Schmittgen, Methods, 2001, 25:402-8). The amplification efficiency E is calculated from the slope of the amplification curve for FL SMN2mini and GAPDH individually. The abundance of FL SMN2mini and GAPDH mRNA are then calculated as (1+E)^−Ct, where Ct is the threshold value for each amplicon. The abundance of FL SMN2mini mRNA is normalized to GAPDH mRNA abundance. The normalized FL SMN2mini mRNA abundance from test compound-treated samples is then divided by normalized FL SMN2mini mRNA abundance from vehicle-treated cells to determine the level of FL SMN2mini mRNA relative to vehicle control.
Table 2 provides EC1.5x concentrations for production of full length SMN2 minigene mRNA that was obtained from the 7-point concentration data generated according to the above procedure for particular compounds of the present invention.

[2] = tested on: SMN protein; assay: SMN protein assay (HTRF) in cultured SMA patient fibroblast cells; type: cell-based; details: SMA Type 1 human fibroblasts GM03813, 48 hours; for EC1.5x SMN protein (EC1.5x concentration for SMN protein expression): 7-point concentration curve, concentration giving 1.5 times SMN protein vs vehicle; for max. fold increase (maximum fold increase of SMN protein): 7-point concentration data, fold vs vehicle control
Procedure: The SMN HTRF (homogeneous time resolved fluorescence) assay is used to quantify the level of SMN protein in SMA patient fibroblast cells treated with test compounds.
Cells are thawed and cultured in DMEM-10% FBS for 72 hours. Cells are trypsinized, counted and re-suspended to a concentration of 25,000 cells/mL in DMEM-10% FBS. The cell suspensions are plated at 5,000 cells per well in a 96 well microtiter plate and incubated for 3 to 5 hours. […] 1 μL of test compound solution is transferred to cell-containing wells and cells are incubated for 48 hours in a cell culture incubator (37° C., 5% CO2, 100% relative humidity). Triplicate samples are set up for each test compound concentration. After 48 hours, the supernatant is removed from the wells and 25 μL of the RIPA lysis buffer, containing protease inhibitors, is added to the wells and incubated with shaking at room temperature for 1 hour. 25 μL of the diluent is added and then 35 μL of the resulting lysate is transferred to a 384-well plate, where each well contains 5 μL of the antibody solution (1:100 dilution of anti-SMN d2 and anti-SMN kryptate in SMN reconstitution buffer). The plate is centrifuged for 1 minute to bring the solution to the bottom of the wells, then incubated overnight at room temperature. Fluorescence for each well of the plate at 665 nm and 620 nm is measured on an EnVision multilabel plate reader (Perkin-Elmer).
The normalized fluorescence signal is calculated for each sample, Blank and vehicle control well by dividing the signal at 665 nm by the signal at 620 nm. Normalizing the signal accounts for possible fluorescence quenching due to the matrix effect of the lysate. The ΔF value (a measurement of SMN protein abundance as a percent value) for each sample well is calculated by subtracting the normalized average fluorescence for the Blank control wells from the normalized fluorescence for each sample well, then dividing this difference by the normalized average fluorescence for the Blank control wells and multiplying the resulting value by 100. The ΔF value for each sample well represents the SMN protein abundance from test compound-treated samples. The ΔF value for each sample well is divided by the ΔF value for the vehicle control wells to calculate the fold increase in SMN protein abundance relative to the vehicle control. Table 3 provides EC1.5x concentrations for SMN protein expression that was obtained from the 7-point concentration data generated according to the above procedure for particular compounds of the present invention.
Table 4 provides the maximum fold increase of SMN protein that was obtained from the 7-point concentration data generated according to the above procedure for particular compounds of the present invention

SMILES	EC (1.5-fold) [1] [µM]	EC1.5x SMN protein (EC1.5x concentration for SMN protein expression) [2] [µM]	max. fold increase (maximum fold increase of SMN protein) [2]
Cc1cn2cc(NC(=O)c3ccc(C4CCNCC4)nc3)cc(F)c2n1 [Example 79, N-(8-fluoro-2-methylimidazo[1,2-a]pyridin-6-yl)-6-(piperidin-4-yl)nicotinamide dihydrochloride]	0.0559	0.2559	1.6574
Cc1nc2c(F)cc(NC(=O)c3ccc(N4CCNCC4)cc3F)cc2o1 [Example 58, 2-fluoro-N-(4-fluoro-2-methyl-benzo[d]oxazol-6-yl)-4-(piperazin-1-yl)benzamide]	0.0398	0.1159	1.7744
Cc1cn2cc(NC(=O)c3ccc(N4CCNCC4)c(C)c3)cc(F)c2n1 [Example 66, N-(8-fluoro-2-methylimidazo[1,2-a]pyridin-6-yl)-3-methyl-4-(piperazin-1-yl)benzamide]	0.518	0.6108	1.5438
Cc1cn2cc(NC(=O)c3ccc(N4CCNC(C)C4)cn3)ccc2n1 (racemic) [Example 17, rac-N-(2-methyl-imidazo[1,2-a]-pyridin-6-yl)-5-(3-methyl-piperazin-1-yl)-picolinamide]	0.233	0.5022	1.6966
Cc1cn2cc(NC(=O)c3cnc(N4CCNC(C)C4)c(F)c3)cc(F)c2n1 (racemic) [Example 47, rac-5-fluoro-N-(8-fluoro-2-methyl-imidazo[1,2-a]-pyridin-6-yl)-6-(3-methylpiperazin-1-yl)nicotinamide hydrochloride]	0.396	0.611	1.7065
Cc1cn2cc(NC(=O)c3ccc(N4CCN(C)CC4)nc3)cc(F)c2n1 [Example 32, N-(8-fluoro-2-methylimidazo-[1,2-a]pyridin-6-yl)-6-(4-methyl-piperazin-1-yl)-nicotinamide]	0.0938	0.2028	1.7579
Cc1cn2cc(NC(=O)c3ccc(C4=CCNCC4)cc3F)ccc2n1 [Example 60, 2-fluoro-N-(2-methylimidazo[1,2-a]pyridin-6-yl)-4-(1,2,3,6-tetrahydro-pyridin-4-yl)-benzamide hydrochloride]	0.0428	0.107	1.7375
Cc1cn2cc(NC(=O)c3ccc(C4=CCNCC4)nc3)cc(F)c2n1 [Example 62, N-(8-fluoro-2-methylimidazo[1,2-a]pyridin-6-yl)-6-(1,2,3,6-tetra-hydropyridin-4-yl)nicotinamide dihydrochloride]	0.0136		1.5583
Cc1nc2c(F)cc(NC(=O)c3ccc(N4CCNCC4)cc3)cc2o1 [Example 28, N-(4-fluoro-2-methylbenzo[d]-oxazol-6-yl)-4-(piperazin-1-yl)benzamide]	0.252	0.2868	1.7291
Cc1cn2cc(NC(=O)c3ccc(N4CCNC(C)C4)cc3F)c(C)cc2n1 (racemic) [Example 52, rac-N-(2,7-dimethyl-imidazo[1,2-a]-pyridin-6-yl)-2-fluoro-4-(3-methyl-piperazin-1-yl)-benzamide dihydrochloride]	0.04	0.1518	1.8152
Cc1cn2cc(NC(=O)c3ccc(N4CCNC(C)C4)nc3)ccc2n1 (racemic) [Example 12, rac-N-(2-methyl-imidazo[1,2-a]-pyridin-6-yl)-6-(3-methyl-piperazin-1-yl)nicotinamide]	0.312	0.7037	1.6512
